Experimental findings from patent publication US20120276098A1, “DRUG FUSIONS AND CONJUGATES WITH EXTENDED HALF LIFE” (priority 2009, published 2012) are described below.

This assay has as its system db/db C57BL/6J mice. Description: Chronic diabetes efficacy study in db/db mice, peptide-AlbudAbs alone and combined. The assay is classed as in vivo, mouse. The settings on record: for decrease in glycosylated HbAlc: baseline vs day 16; for plasma insulin levels: day 16. How it is done: Male db/db C57BL/6J mice (Jackson Labs, Bar Harbor, Me.) were used for all experiments. The db/db mice (B6.Cg-m +/+ Leprdb/J) and controls were group-housed by the vendor. The db/db mice (10-12 weeks of age), and age-matched controls were shipped to GSK where they were single-housed and maintained at constant temperature (approximately 22° C.) with 12 hr light/dark cycle (lights on from 5:00 AM to 5:00 PM). Mice were given ad libitum access to food (LabDiet 5K67, 16% fat for db/db and their controls) and water. All animal protocols were approved by the institutional animal care and use committee at GlaxoSmithKline in Research Triangle Park, N.C. The peptide-AlbudAbs were prepared fresh daily. The correct dosing concentration of the drug was obtained by diluting the master stock using a citrate vehicle buffer comprised of 100 mM NaCl, 20 mM citric acid, pH 6.2 (filter sterilized). For combination dosing, the drugs were mixed together so that only one injection would be required.
Chronic Diabetes Efficacy Studies: The db/db mice and age-matched lean controls were habituated in house 2 weeks before the start of the study. Animals were dosed every two days between 2-4 pm subcutaneously with a dose volume of 5 ml/kg over a period of 15 days. A three day vehicle lead in period was used before the start of drug with the first day being vehicle and the second two days being mock injections. Baseline fat mass and lean mass measurements were taken 3 days before the start of drug and on day 15 using a QMR instrument (Echo Medical Systems, Houston, Tex.) Body weight measurements were taken every Monday, Wednesday, and Friday starting four days before the first drug dose. […] Food hopper weights were measured every weekday starting 4-6 days before the first drug dose, allowing for the calculation of food intake. Animals that created excessive food spillage were removed prior to the beginning of the study. During the study, excess food was removed from the cage and added to the food hopper weights for increased accuracy. Eight animals (n=8) were used for the lean control group and eight animals (n=8) were used for all other treatment groups. A pair-fed control was included in which the daily food intake for the combination ED80 group was calculated and that amount of food was given to the pair-fed group to eat the next day. Sixteen days after the start of drug treatment, animals were fasted for at least 4 hours before collection of whole blood, plasma, and serum samples via terminal cardiac exsanguinations. The whole blood was used to determine the % HbAlc, the plasma was used for a gastrointestinal hormone panel, and the serum was used to access multiple chemistries. Finally, major organs and tissues were collected (heart, kidney, liver, lung, stomach, duodenum, colon, pancreas, brown adipose, white adipose, carcass) on day 16 and fixed in 10% neutral buffered formalin for macroscopic and microscopic histological examination.

The mark [1] stands for this setting: ED20 doses: PYY-AlbudAb 0.1 mg/kg, Exendin-4-AlbudAb 0.01 mg/kg, Combo ED20.

In the case of “DAT 0115: genetic fusion: exendin-4, (G4S)3 linker, 7h-14 AlbudAb, SEQ ID NO 2”, the “inhibition of weight gain (in words)” value (PYY-AlbudAb 1.0 mg/kg, Exendin-4-AlbudAb 0.1 mg/kg, Combo ED80) is recorded as “effective at inhibiting weight gain”. Further, the “decrease in glycosylated HbAlc” value is “no significant changes” under setting [1] and 0.80% (ED80 doses: PYY-AlbudAb 1.0 mg/kg, Exendin-4-AlbudAb 0.1 mg/kg, Combo ED80). Moreover, for the setting “day 15, ED80 doses: PYY-AlbudAb 1.0 mg/kg, Exendin-4-AlbudAb 0.1 mg/kg, Combo ED80”, the “decrease in body weight from vehicle” value is 9.2%. Besides, the “decrease in body weight relative to vehicle control” value (day 15, PYY-AlbudAb 0.1 mg/kg, Exendin-4-AlbudAb 0.01 mg/kg) is on record as “no significant effect”. The plasma insulin levels result is, setting by setting: under setting [1], “trends towards increases”; (ED80 doses: PYY-AlbudAb 1.0 mg/kg, Exendin-4-AlbudAb (dose not given), Combo ED80) 32036 pg/mL.
